Measurements taken from patent US9000027B2, “Chk1 suppresses a caspase-2 apoptotic response to DNA damage that bypasses p53, bcl-2 and caspase-3” (Dana-Farber Cancer Institute, Inc., priority 2008, dated 2015).
Entries after “also recorded” stand apart in the source; their conditions may differ.

How the values were obtained:
human cancer cell lines = experiment: Annexin V (+)/PI (-) apoptosis assay in human cancer cell lines; type: cell-based
Procedure: For the Annexin V assay, 2.0×10^5 cells treated with IR (0 or 10 Gy) and/or Gö6976 (0 or 1 μM) for 48 h were washed with cold-PBS and resuspended in staining buffer containing propidium iodide (PI) and fluorescein isothiocynate (FITC)-conjugated anti-AnnexinV antibody (MEBCYTO apoptosis kit, MBL international, MA). After 30 min incubation at room temperature, cells were analyzed by flow cytometry (FACScaliber, BD Bioscience, San Jose, Calif.) and CellQuest analysis program (BD Bioscience). The cells in PI-negative and AnnexinV-positive fraction were evaluated as apoptosis. Data were collected from two independent experiments in which each condition (shRNA, presence or absence of Gö6976) was analyzed in triplicate.

MK-2 = MK-2 (Homo sapiens, UniProt P49137); experiment: Western blot of MK-2 activity (Hsp-27 Ser82 phosphorylation) in irradiated HeLa cells; type: cell-based; set-up: endogenous in cells; host or cells: HeLa
Chain of MK-2 (P49137 whole entry): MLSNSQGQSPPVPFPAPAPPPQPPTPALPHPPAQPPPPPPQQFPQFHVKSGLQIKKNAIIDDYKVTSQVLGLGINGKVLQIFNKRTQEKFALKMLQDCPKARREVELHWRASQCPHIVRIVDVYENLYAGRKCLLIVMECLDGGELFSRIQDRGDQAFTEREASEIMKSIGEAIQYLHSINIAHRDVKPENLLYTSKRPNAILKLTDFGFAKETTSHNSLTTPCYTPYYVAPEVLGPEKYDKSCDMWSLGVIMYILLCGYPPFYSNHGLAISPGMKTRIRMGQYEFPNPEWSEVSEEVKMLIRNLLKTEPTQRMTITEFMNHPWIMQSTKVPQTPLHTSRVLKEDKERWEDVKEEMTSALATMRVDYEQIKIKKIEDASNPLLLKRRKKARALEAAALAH
Procedure: (§1) Protein extract (5-60 μg) was added to 4× gel loading buffer and 10× denaturing solution (Invitrogen) in appropriate proportions, and samples were incubated at 70° C. for 10 min. Samples were run at 200V for 1 hr on a 4-12% Bis-tris gradient gel (Invitrogen). After electrophoresis, samples were transferred for 1.5 hr (350 mA) to a Nitrocellulose membrane (Millipore) using a submerged transfer apparatus (Bio-Rad). Membranes were then blocked with 5% milk in Tris-buffered saline with 0.1% tween (TBST) and probed overnight at 4° C. with the following antibodies: anti-zebrafish Chk1 (diluted 1:200), anti-zebrafish Chk2 (1:200), anti-P-Cdc2 (1:1000), anti-actin (1:2000), anti-human ATR (1:500) and Stressgen anti-human-caspase-3 (1:500) for zebrafish immunoblots; and anti-caspase-2 (1:200), Upstate anti-caspase-3 (1:500), anti-P-ATM (1:500), anti-ATM (1:500), Santa Cruz anti-human Chk1 (1:1000), Santa Cruz anti-human Chk2 (1:1000), anti-P-Chk1 (1:500), anti-P-Chk2 (1:500), anti-P-H2A.X (1:2000), anti-P-cdc25C (1:1000), anti-P-HSP27 (1:1000), anti-HSP27 (1:1000), anti-P-Cdc2 (1:1000), anti-p53 (1:1000) and anti-GAPDH (1:5000) for immunoblots of human tumor cell lysates. Detailed references for all primary antibodies can be found in the ‘Antibodies’ section elsewhere herein.

ATM = experiment: Western blot of ATM activity (Chk2 phosphorylation at Thr68) in HeLa cells; type: cell-based, human; details: 10 Gy IR+Gö6976 1 μM
Procedure: as §1

caspase-2 = experiment: Western blot of caspase-2 cleavage in human cancer cells; type: cell-based
Procedure: as §1

ATR = experiment: Western blot of ATR activity (Chk1 phosphorylation at Ser317) in HeLa cells; type: cell-based, human; details: 10 Gy IR+Gö6976 1 μM
Procedure: as §1

HeLa cells = experiment: Cell viability assay (CellTiter-Glo) after IR; type: cell-based, human; details: 10 Gy, 72 hpIR
Procedure: For the cell viability assay, Tg(BCL2)^− and Tg(BCL2)^+ H218 cells were seeded into black 96-well plates (BD Bioscience) at a density of 1000 cells per well on day 1. 24-well sets were treated with DMSO or Gö6976 (1 μM), and plates were exposed to 0 or 10 Gy IR on day 2. After 72 hr, cellular viability was measured with the CellTiter-Glo Luminescent Cell Viability Assay kit (Promega) according to the manufacturer's instructions. Cellular viability for each well was calculated as a percentage of the mean viability of DMSO-treated, non-irradiated cells. The mean cellular viability and SEM were calculated and plotted with GraphPad Prism version 3 (GraphPad Software, San Diego Calif., USA). Each viability experiment was performed twice.

myeloid cells = experiment: Quantification of myeloid cells (mpo/l-plastin in situ hybridization) in irradiated embryos; type: in vivo, zebrafish; details: p53^e7/e7 background, IR, 28 hpf
Description: FIG. 2 provides a series of fluorescent images, western blot images, in situ hybridization images and two sets of graphs as outlined below. chk1 knockdown radiosensitizes p53 mutants but is otherwise compatible with normal zebrafish development. (A) Fluorescence images of representative embryos of indicated genotypes+/−chk1 MO after 0- or 12.5-Gy IR. 5 bpmmMO, 5-base-pair mismatch MO. (B) Quantified AO responses of indicated genotypes with or without IR (12.5 Gy) and chk1 MO. Gray bars, p53^+/+ background; black bars, p53^e7/e7 background. AO staining was quantified in ≧8 embryos per condition, with ≧1000 embryos scored. All data are reported as means+/−SEM. ***P<0.0001 (two-tailed Student's t-test). […] (E) Fluorescence images of representative embryos of indicated genotypes. p53^e6 is the N168K mutation, corresponding to human residue 200. p53MO, MO against the p53 5′UTR. (F) Fluorescence images of live transgenic embryos injected with the indicated MOs at the 1-cell stage and expressing EGFP in the notochord (top, embryos photographed at 24 hpf) or in myeloid progenitors (bottom, embryos photographed at 16.5 hpf). […] (G) Quantification of myeloid cells in 28 hpf embryos generated as indicated (x-axis) and processed as in panel H. Gray bars, p53^+/+ background; black bars, p53^e7/e7 background. mpo/lplastin staining was quantified in 15 embryos per condition. […]

[1] = TP53+/+ HCT116 cells, IR+Gö6976

Compound | apoptosis (human cancer cell lines; [1]) | apoptosis versus single- or no-treatment controls (human cancer cell lines; TP53 null or mutant lines, 10 Gy IR+Gö6976, 48 hpIR) | MK-2 activity (MK-2; Gö6976 1 μM) | HSP-27 phosphorylation at serine 82 (MK-2 site) (MK-2; Gö6976, increasing concentrations, 10 Gy, 24 hpIR) | phosphorylated Chk2 at Thr68 (readout for ATM activity) (ATM) | caspase-2 activation (caspase-2; HeLa, 2 Gy, Gö6976 500 nM for 24 hbIR) | caspase-2 cleavage (caspase-2; HeLa, 2 or 3.2 Gy, Gö6976 1 μM applied 1 hbIR) | caspase-2 activation (caspase-2; HeLa, 3.2 Gy, Gö6976 1 μM applied 6 hbIR) | caspase-2 cleavage (caspase-2; HeLa, 10 Gy, 24 hpIR, Gö6976 1 μM applied 1 hbIR) | caspase-2 cleavage (caspase-2; [1]) | caspase-2 cleavage versus single- or no-treatment controls (caspase-2; TP53 null or mutant lines (TP53-/- HCT116, SAOS2, MDA-MB-435, LN-428), 10 Gy IR+Gö6976) | phosphorylated Chk1 at Ser317 (readout for ATR activity) (ATR) | radiosensitizing effect (cell killing) (HeLa cells; Gö6976 1 μM) [%] | radiosensitization of HeLa cells (HeLa cells; regardless of BCL2 transgene) [fold] | average reduction in myeloid cell numbers (myeloid cells) [fold]
Cn1c2ccccc2c2c3c(c4c5ccccc5n(CCC#N)c4c21)CNC3=O [Gö6976] | moderate, yet significant increase in apoptosis | increases in caspase-2 cleavage and apoptosis | an increase in MK-2 activity | did not block HSP-27 phosphorylation at serine 82 | synergistic increases | synergistic activation of caspase-2 was observed | no detectable cleavage | as efficiently as the standard 10 Gy protocol | readily apparent; also recorded: strong caspase-2 cleavage | inability to cleave caspase-2 | increases in caspase-2 cleavage | synergistic increases | ~50 | ~2 | 
chk1 MO: morpholino against zebrafish chk1 atg/5'UTR, aggcacagccattatgcaatcttcg (SEQ ID NO: 11) (AGGCACAGCCATTATGCAATCTTCG; all phosphorodiamidate morpholino (PMO)) |  |  |  |  |  |  |  |  |  |  |  |  |  |  | 2
